Results: patent US20070225338A1, “Juvenile Hormone Analogs for Control of Leafhopper and Treehopper Pests” (priority 2004, published 2007)
“And” between values parts separate entries of the source, which are not always exact repeats. Identical values can stand only once.

What was measured:
GWSS = conditions: cited from earlier work; for efficacy against GWSS (CDFA nursery shipping protocol list): in vivo; for speed of activity against GWSS: tested over several weeks, Redak and Bethke
[1] = test system: Draeculacephala crassicornis; conditions: topical, substrate and vapor treatments; cited from earlier work
[2] = test system: Homalodisca coagulata females; assay: Example 4: mortality of JH analog-treated field-collected gravid females; format: in vivo; conditions: 10 days post-treatment, fifteen females per treatment
Procedure: The treatment rates for all three: methoprene, kinoprene, and hydroprene are listed below.
This example summarizes two ongoing tests involving field-collected gravid females and eggs oviposited less than 24 hours prior to treatment. […] After eclosion the neonates will be held on host plants until death or successful development to the second instar, which ever occurs first.
Fifteen females were used for each treatment. […] The females will be dissected to determine if there are sub-lethal effects of the JH analogs on the reproductive system.

[3] = test system: Homalodisca coagulata (Say); assay: Example 1: females in diapause sprayed with compound, oviposition and dissection of reproductive system; format: in vivo
Source text: (§1) As described in Examples 1 and 2, the inventors topically applied methoprene in an aqueous solution to GWSS females that were: 1) over-wintering in reproductive diapause or 2) females that were newly eclosed adults and not yet reproductively active. […] Untreated females ordinarily will begin reproductive cycles 10-12 days post eclosion.
Ten female Homalodisca coagulata (Say) were sprayed until visibly wet with the candidate compound. They were then placed into a wooden 1 m screened cage that was provisioned with five males and glabrous soybean, Glycine max (L.) A similar untreated control cage was also set up with females sprayed with distilled water. All leafhoppers were taken from a greenhouse culture and were in the process of terminating winter reproductive diapause. Females were checked daily for the presence of brochosomes and plants were checked for egg masses. Cages were in a greenhouse maintained at 32° C. and equipped with artificial lighting for a 14:10 photoperiod. Surviving females were dissected after thirty days and their reproductive status was evaluated.

H. coagulata = assay: Example 2: newly-eclosed adult females treated with compound, dissection after 36 days; format: in vivo, Homalodisca coagulata
Procedure: as §1
Seven newly eclosed adult female H. coagulata were treated with the compound. The solution was applied with an aerosol device until individuals were noticeable wet. After treatment, female were placed into a wooden 1 m-screened cage that was provisioned with crape myrtle, eastern saltbush, and soybean. Five males of unknown ages were added to the cage. Female were dissected after 36 days. Males were discarded.

GWSS nymphs = assay: Treatment of GWSS nymphs; format: in vivo, Homalodisca coagulata
GWSS females = assay: Treatment of reproductively-active females; format: in vivo, Homalodisca coagulata; conditions: following weeks of evaluation
[4] = test system: egg parasitoids, Gonatocerus spp.; assay: Impact on egg parasitoids; conditions: non-target Gonatocerus spp.
[5] = treatment A: 1/100 of recommended dose
[6] = treatment B: 1/10 of recommended dose
[7] = treatment D: 10× recommended dose
[8] = treated diapausing females, one value per surviving female, dissected after thirty days
[9] = newly eclosed adult females, one value per female, 36 days post-treatment

SMILES: Cc1c(COC(=O)[C@@H]2[C@H](/C=C(\Cl)C(F)(F)F)C2(C)C)cccc1-c1ccccc1 (racemic) [bifenthrin]
- efficacy against GWSS (CDFA nursery shipping protocol list) (GWSS): some efficacy

SMILES: CC(COc1ccc(Oc2ccccc2)cc1)Oc1ccccn1 (racemic) [pyriproxifen, 4-phenoxyphenyl (RS)-2-(2-pyridyloxy)propyl ether]
- speed of activity against GWSS (GWSS): too slow to be useful for eradication purposes

SMILES: COC(=O)C=C(C)CCC=C(C)CCC1OC1(C)C (stereo not shown) [Juvenile hormone III]
- effect on diapause [1]: terminated diapause

SMILES: COP(=O)(NC(C)=O)SC (stereo not shown) [acephate]
- efficacy against GWSS (CDFA nursery shipping protocol list) (GWSS): some efficacy

SMILES: CC(C)N1C(=O)N(c2ccccc2)CS/C1=N\C(C)(C)C [buprofizen]
- speed of activity against GWSS (GWSS): too slow to be useful for eradication purposes

SMILES: CNC(=O)Oc1cccc2ccccc12 [carbaryl]
- efficacy against GWSS (CDFA nursery shipping protocol list) (GWSS): some efficacy

SMILES: CCOP(=S)(OCC)Oc1nc(Cl)c(Cl)cc1Cl [chlorpyrifos]
- efficacy against GWSS (CDFA nursery shipping protocol list) (GWSS): some efficacy

SMILES: CC1(C)C(C=C(Cl)Cl)C1C(=O)OC(C#N)c1ccc(F)c(Oc2ccccc2)c1 (stereo not shown) [cyfluthrin]
- efficacy against GWSS (CDFA nursery shipping protocol list) (GWSS): some efficacy

SMILES: CC1(C)[C@H](C(=O)O[C@H](C#N)c2cccc(Oc3ccccc3)c2)[C@@H]1C=C(Br)Br [deltamethrin]
- efficacy against GWSS (CDFA nursery shipping protocol list) (GWSS): some efficacy

SMILES: CC1(C)C(C(=O)OC(C#N)c2cccc(Oc3ccccc3)c2)C1(C)C (stereo not shown) [fenpropathrin]
- efficacy against GWSS (CDFA nursery shipping protocol list) (GWSS): some efficacy

SMILES: CCOC(=O)/C=C(C)/C=C/CC(C)CCCC(C)C (stereo not shown) [hydroprene, ethyl (2E,4E)-3,7,11-trimethyl-2,4-dodecadienoate]
- number of dead female Homalodisca coagulata [2, 5]: 3
- number of dead female Homalodisca coagulata [2, 6]: 0
- number of dead female Homalodisca coagulata ([2]; treatment C: recommended dose): 0
- number of dead female Homalodisca coagulata [2, 7]: 14

SMILES: O=[N+]([O-])NC1=NCCN1Cc1ccc(Cl)nc1 [imidaclopid]
- efficacy against GWSS (CDFA nursery shipping protocol list) (GWSS): some efficacy

SMILES: C#CCOC(=O)/C=C(C)/C=C/CC(C)CCCC(C)C [kinoprene, 2-propynl (2E,4E)-(7S)-3,7,11-trimethyl-2,4-dodecadienoate]
- number of dead female Homalodisca coagulata [2, 5]: 1
- number of dead female Homalodisca coagulata [2, 6]: 1
- number of dead female Homalodisca coagulata ([2]; treatment C: recommended dose): 0
- number of dead female Homalodisca coagulata [2, 7]: 0

SMILES: CNC(=O)Oc1cc(C)c(SC)c(C)c1 [methiocarb]
- efficacy against GWSS (CDFA nursery shipping protocol list) (GWSS): some efficacy

SMILES: COC(C)(C)CCC[C@H](C)C/C=C/C(C)=C/C(=O)OC(C)C [methoprene, isopropyl (2E,4E)-11-methoxy-3,7,11-trimethyl-2-2,4-dodecadienoate]
- reproductive activity of surviving treated females on dissection ([3]; after 30 days): had not begun reproductive activity
- eggs produced by treated females ([3]; diapausing females, 30 days): No eggs were produced
- time treated females remained reproductively inactive ([3]; diapausing females, topical aqueous solution, summer conditions (32° C., 14:10 L:D), untreated controls oviposit after 10 days): at least 30 days
- Brochosomes (within Malpigian tubules) [3, 8]: 1
- Fat body [3, 8]: 2
- Ova [3, 8]: 1
- Ovarioles ([3]; treated diapausing females, one value per surviving female, dissected after thirty days, 32° C., 14:10 photoperiod): 2
- time without egg production post-treatment (H. coagulata; 36 days was the maximum time tested): at least 36 days
- accumulated fat body in treated females (H. coagulata; dissection of adult females): high amount of accumulated fat body
- effect on development of brochosomes and ovarioles (H. coagulata; dissection of reproductive system of adult females): inhibits the development of both brochosomes and ovarioles
- Brochosomes (H. coagulata; [9]): 1 and 1.5
- Fat body (H. coagulata; [9]): 2.5 and 1.5 and 2
- Ova (H. coagulata; [9]): 1
- Ovarioles (H. coagulata; [9]): 2
- eggs produced by treated females (H. coagulata; newly eclosed females, 36 days): no eggs were produced
- ovariole (reproductive) development on dissection (H. coagulata; newly eclosed females, 36 days): inhibited
- egg development and oviposition after treatment (H. coagulata; newly eclosed females, after 36 days of summer conditions, untreated begin 10-12 days post eclosion): did not develop eggs or oviposit
- number of dead female Homalodisca coagulata [2, 5]: 0
- number of dead female Homalodisca coagulata [2, 6]: 0
- number of dead female Homalodisca coagulata ([2]; treatment C: recommended dose): 0
- number of dead female Homalodisca coagulata [2, 7]: 0
- effect of treating nymphs (mortality, time of development, morphology) (GWSS nymphs): did not cause mortality, increase or decrease time of development, or induce morphological aberrations
- oviposition of treated reproductively-active females (GWSS females): oviposited the eggs they contained then stopped
- impact on egg parasitoids [4]: no impact

SMILES: O=C(NC(=O)c1c(F)cccc1F)Nc1ccc(OC(F)(F)C(F)OC(F)(F)F)c(Cl)c1 (stereo not shown) [novaluron]
- speed of activity against GWSS (GWSS): too slow to be useful for eradication purposes

SMILES: CC1(C)C(C=C(Cl)Cl)C1C(=O)OCc1cccc(Oc2ccccc2)c1 (stereo not shown) [permethrin]
- efficacy against GWSS (CDFA nursery shipping protocol list) (GWSS): some efficacy
